Patent publication US8557829B2, “Use of allopurinol for the treatment of palmar plantar erythrodysesthesia” (Nobera Pharma, S.L., priority 2006, dated 2013)
One block for each compound: values may come before it.

Key:
[1] = tested on: Patients suffering from colon cancer or breast cancer; test: Example 3: appearance of PPE under standard chemotherapy; assay type: in vivo, human
Experimental: (§1) Patients suffering from colon cancer or breast cancer were treated from January 2005 up to March 2007 with the following standard chemotherapy: • AIO protocol: high dose infusion 5FU24H+leucovorin • FOLFOX 4 protocol: day 1: oxaliplatin, 85 mg/m2, and leucovorin, 200 mg/m2, concurrently i.v., then 5-FU, 400 mg/m2 i.v. bolus followed by 600 mg/m2 continuous i.v.; day 2: leucovorin, 200 mg/m2 i.v., then 5-FU, 400 mg/m2 i.v. bolus, followed by 600 mg/m2 continuous i.v.; repeated every 2 weeks. • Oral capecitabine.
Palmar plantar erythrodysesthesia (PPE) appeared in 30% of the patients treated with 5-FU and in 66% of those treated with capecitabine.

cancer patients = details: colon / colorectal cancer, versus fluorouracil+leucovorin; cited from earlier work
[2] = tested on: Patients suffering from colon cancer or breast cancer; test: Example 3: response of PPE to allopurinol cream treatment; assay type: in vivo, human
Experimental: as §1
The cream comprising allopurinol as prepared in example 1 was topically applied by the patients 4-5 times a day to the hands and feet. In case of no response to this treatment and persistence of PPE symptoms, the dosage of chemotherapy was reduced and some cases interrupted.

[3] = tested on: Patients with colorectal carcinoma; test: Example 2: treatment of palmar plantar erythrodysesthesia with the allopurinol cream; assay type: in vivo, human
Experimental: Patients with colorectal carcinoma were administered chemotherapy (adjuvant or palliative) following the usual protocols. As soon as the first symptoms of palmar planar erythrodysesthesia appeared after starting chemotherapy, the patients were administered the cream prepared in example 1.
The characteristics of the patients treated with the cream and the chemotherapeutic regimen that they were administered were as follow:
Patients with advanced or metastatic colorectal cancer: 8
Patients with resected stage III colon cancer: 2
• 5FU+LV bolus (Mayo protocol): 1 patient • 5FU+LV infusional (AIO protocol): 7 patients • Capecitabine monotherapy: 2 patients
The cream was applied 5 times per day, to the palms and soles, as long as the chemotherapy was applied. The frequency was reduced in between cycles and increased shortly before and during chemotherapy administration.

[4] = biological target: T1, deoxythymidine phosphorylase (thymidine phosphorylase, TP) (Homo sapiens, UniProt P19971); details: Gallo et al. J Biological Chemistry 1968; cited from earlier work
T1 sequence (P19971 11-482): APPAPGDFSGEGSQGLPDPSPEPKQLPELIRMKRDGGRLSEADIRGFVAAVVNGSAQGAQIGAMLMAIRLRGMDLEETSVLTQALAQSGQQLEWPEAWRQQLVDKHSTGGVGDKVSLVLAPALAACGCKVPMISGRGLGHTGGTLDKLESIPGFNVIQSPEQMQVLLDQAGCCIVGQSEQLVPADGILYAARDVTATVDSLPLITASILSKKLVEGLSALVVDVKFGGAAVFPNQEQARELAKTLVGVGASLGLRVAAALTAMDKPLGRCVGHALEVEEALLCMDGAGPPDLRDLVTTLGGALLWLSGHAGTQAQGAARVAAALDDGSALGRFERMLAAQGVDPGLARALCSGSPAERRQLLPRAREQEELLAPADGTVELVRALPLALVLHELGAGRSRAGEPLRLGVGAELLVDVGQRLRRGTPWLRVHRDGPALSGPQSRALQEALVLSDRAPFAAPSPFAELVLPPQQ

[5] = cited from earlier work
uridine phosphorylase = uridine phosphorylase (Homo sapiens, UniProt Q16831); details: Gallo et al. J Biological Chemistry 1968; cited from earlier work
[6] = standard chemotherapy, before allopurinol treatment
[7] = 2 PPE patients on FOLFOX-4 chemotherapy
[8] = 3% cream 4-5 times a day to hands and feet
[9] = 5 PPE patients on AIO chemotherapy
[10] = 8 PPE patients on Capecitabine chemotherapy
[11] = all 15 PPE patients, 3% cream 4-5 times a day
[12] = all 15 PPE patients, 3% cream 4-5 times a day, listed as allopiirinol

uridine phosphorylase, sequence (Q16831 whole entry): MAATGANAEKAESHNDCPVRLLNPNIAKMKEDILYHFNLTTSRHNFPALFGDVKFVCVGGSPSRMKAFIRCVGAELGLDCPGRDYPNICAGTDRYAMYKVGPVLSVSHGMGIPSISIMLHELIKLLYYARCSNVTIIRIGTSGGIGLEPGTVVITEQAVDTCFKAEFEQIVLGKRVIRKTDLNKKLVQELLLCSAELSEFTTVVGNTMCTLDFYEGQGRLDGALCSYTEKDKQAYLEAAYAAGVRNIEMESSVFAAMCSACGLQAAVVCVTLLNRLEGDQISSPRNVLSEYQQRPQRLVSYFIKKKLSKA

PPE symptoms, % of patients [1, 6]: 30%
Structure (SMILES): O=c1[nH]cc(F)c(=O)[nH]1 [5-FU, Fluorouracil]

Cumulative dosis with capecitabine until apprearauce of PPE, Median ([1]; patients who developed PPE): 81.000 mg
PPE symptoms, % of patients [1, 6]: 66%
PPE symptoms, n (of patients treated) [1, 6]: 8(12)
PPE symptoms, % of patients ([1]; standard chemotherapy, before allopurinol treatment, listed as capecitabine): 66%
Structure (SMILES): CCCCCOC(=O)Nc1nc(=O)n([C@@H]2O[C@H](C)[C@@H](O)[C@H]2O)cc1F [Capecitabine]
incidence of hand-foot syndrome (PPE), all grades (cancer patients): 49-60%
incidence of hand-foot syndrome (PPE), severe grades (cancer patients): 17%

Structure (SMILES): Oc1ncnc2[nH]ncc12 [allopurinol, 1,5-dihydro-4H-pyrazolo[3,4-d]pyrimidin-4-one]
NR: no response, % [2, 7]: 50%
PR: Partial remission, % [2, 7]: 50%
TR: total response, % [2, 7]: 50%
patients that had developed PPE in whom chemotherapy was completed as planned [2, 8]: 86%
toxic effects associated to the topical treatment [2, 8]: No toxics effects
CR: complete remission, % [2, 9]: 80%
NR: no response, % [2, 9]: 0%
PR: Partial remission, % [2, 9]: 20%
TR: total response, % [2, 9]: 100%
CR: complete remission, % [2, 10]: 62.5%^
NR: no response, % [2, 10]: 12.5%
PR: Partial remission, % [2, 10]: 25%
TR: total response, % [2, 10]: 87%
quality of life ([2]; PPE patients treated with the 3% cream): significantly improved
CR: complete remission, % [2, 11]: 66%
NR: no response, % [2, 11]: 13.3%^
PR: Partial remission, % [2, 11]: 20%
TR: total response, % ([2]; all 15 PPE patients, 3% cream 4-5 times a day to hands and feet): 86%
TR: total response, % ([2]; all 15 PPE patients, 3% cream 4-5 times a day to hands and feet, listed as allopiirinol): 86.6%^
CR: complete remission, % [2, 12]: 66.6%^
PR: Partial remission, % [2, 12]: 20.0%^
symptoms of PPE following the topical treatment ([3]; 10 patients on 5FU+LV (Mayo or AIO) or capecitabine, 3% cream of example 1, 5 times per day to palms and soles): the symptoms of PPE disappeared
completion of chemotherapy ([3]; 10 patients on 5FU+LV or capecitabine, 3% cream, 5 times per day to palms and soles): completed without any dose reduction or delay in the treatment due to PPE
appearance of PPE ([3]; topical application to cancer patients being treated with chemotherapy (summary statement)): completely avoided the appearance of PPE
inhibition of thymidine phosphorylase (TP) [4]: inhibits TP
solubility in chloroform and in ether [5]: practically insoluble
solubility in dilute solutions of alkali hydroxides [5]: dissolves
solubility in water and alcohol [5]: very slightly soluble
inhibition of uridine phosphorylase (uridine phosphorylase): not uridine phosphorylase
